pIC50: −log10 of the molar value. Structures can show the parent of a compound that is named as a salt.
Experiments:
HSP90α = HSP90α (Homo sapiens, UniProt P07900); test: HSP90α Binding Fluorescent Polarization (FP) Assay; settings: competition with FITC-geldanamycin; read-out: HSP90 Binding Potency
Procedure: HSP90α Binding Fluorescent Polarization (FP) Assay
A master mix was prepared with assay buffer, BSA and FITC-geldanamycin. In a 96-well plate, a serial 3-fold dilution of each compound was prepared ranging from 40 μM down until 2.0 nM. Also in a 96-well plate, recombinant HSP90α protein was diluted to 28 μg/ml. Then, in a 384-well plate, 10 μl of master mix and 5 μl of compound dilution were added per well to duplicate wells and mixed by brief shaking. Then 5 μl of diluted HSP90α protein was added per well, mixed by brief shaking, incubated at 25° C. for 30, 60 and 120 min and fluorescence was measured on an EnVision Plate Reader. Background-subtracted mP values were calculated from EnVision raw data and a four-parameter “log[inhibitor] vs. response” curve was fitted using GraphPad Prism 7.0.

MV4-11 cells = test: MV4-11 Cell Cytotoxicity Assay; format: cell-based, human; settings: human, MV4-11 cells, CCK-8
Source text: % Inhibition=100−(D−B)/(S−B)*100%.
S: The absorbance of the maximum (cells with DMSO)
B: The absorbance of the minimum (medium with DMSO)

BRD4 (BD1+BD2) = target: T1, BRD4 (BD1+BD2) (Homo sapiens, UniProt O60885); settings: read-out: BRD4 Binding Potency
T1 construct: 1.8 μg/ml recombinant BRD4 (BD1+BD2 domains) protein
Procedure: A master mix was prepared with assay buffer, 1.8 μg/ml recombinant BRD4 (BD1+BD2 domains) protein, and 200-fold dilutions of Tb-labeled donor and dye-labeled acceptor. 40-fold dilutions of acetylated and non-acetylated ligands were prepared in 1×BRD TR-FRET assay buffer. Also, a serial 3-fold dilution of each compound was prepared ranging from 40 μM down until 2.0 nM. In a 384-well plate, 5 μl diluted ligand and 5 μl of compound dilution were added per well to duplicate wells and mixed by brief shaking. Then 10 μl of master mix was added per well, mixed by brief shaking, incubated at 25° C. for 2 hr and fluorescence was measured on an EnVision Plate Reader. The 665 nm/615 nm ratio was calculated from EnVision raw data. Data were normalized using whole-plate averages of “positive” and “negative” readings. A four-parameter “log[inhibitor] vs. response” curve was fitted using GraphPad Prism 7.0.

| SMILES | pIC50 (HSP90α) | IC50 at 72 h (MV4-11 cells) | pIC50 (BRD4 (BD1+BD2)) |
| --- | --- | --- | --- |
| CCc1cc(-c2nnc(O)n2-c2ccc(CN3CCC(C(=O)N4CCC(CNCC[C@@H]5N=C(c6ccc(Cl)cc6)c6c(sc(C)c6C)-n6c(C)nnc65)C4)CC3)cc2)c(O)cc1O (stereo partly drawn) [Compound 67, (3-(((2-((6S)-4-(4-chlorophenyl)-2,3,9-trimethyl-6H-thieno[3,2-f][1,2,4]triazolo[4,3-a][1,4]diazepin-6-yl)ethyl)amino)methyl)pyrrolidin-1-yl)(1-(4-(3-(5-ethyl-2,4-dihydroxyphenyl)-5-hydroxy-4H-1,2,4-triazol-4-yl)benzyl)piperidin-4-yl)methanone, trifluoroacetic acid] | 6.00 to 7.00 | 100 to 1000 nM | 6.00 to 7.00 |
| Cc1sc2c(c1C)C(c1ccc(Cl)cc1)=N[C@H](CC(=O)N1CCC(CN3CCN(Cc4ccc(-n5c(O)nnc5-c5cc(C(C)C)c(O)cc5O)cc4)CC3)CC1)c1nnc(C)n1-2 [Compound 125, (R)-2-(4-(4-chlorophenyl)-2,3,9-trimethyl-6H-thieno[3,2-f][1,2,4]triazolo[4,3-a][1,4]diazepin-6-yl)-1-(4-((4-(4-(3-(2,4-dihydroxy-5-isopropylphenyl)-5-hydroxy-4H-1,2,4-triazol-4-yl)benzyl)piperazin-1-yl)methyl)piperidin-1-yl)ethan-1-one hydrochloride] | > 7.00 | < 100 nM | < 6.00 |
| CCc1cc(-c2nnc(C(=O)NC(C)C)n2-c2ccc(CN3CCN(CC4CCN(C(=O)C[C@@H]5N=C(c6ccc(Cl)cc6)c6c(sc(C)c6C)-n6c(C)nnc65)CC4)CC3)cc2)c(O)cc1O [Compound 105, (S)-4-(4-((4-((1-(2-(4-(4-chlorophenyl)-2,3,9-trimethyl-6H-thieno[3,2-f][1,2,4]triazolo[4,3-a][1,4]diazepin-6-yl)acetyl)piperidin-4-yl)methyl)piperazin-1-yl)methyl)phenyl)-5-(5-ethyl-2,4-dihydroxyphenyl)-N-isopropyl-4H-1,2,4-triazole-3-carboxamide, trifluoroacetic acid] | 6.00 to 7.00 | < 100 nM | 6.00 to 7.00 |
| Cc1sc2c(c1C)C(c1ccc(Cl)cc1)=N[C@@H](CC(=O)N1CCC(N3CCN(c4ccc(-n5c(O)nnc5-c5cc(C(C)C)c(O)cc5O)cc4)CC3)CC1)c1nnc(C)n1-2 [Compound 43, 2-((6S)-4-(4-chlorophenyl)-2,3,9-trimethyl-6H-thieno[3,2-f][1,2,4]triazolo[4,3-a][1,4]diazepin-6-yl)-1-(4-(4-(4-(3-(2,4-dihydroxy-5-isopropylphenyl)-5-hydroxy-4H-1,2,4-triazol-4-yl)phenyl)piperazin-1-yl)piperidin-1-yl)ethanone, trifluoroacetic acid] | 6.00 to 7.00 | < 100 nM | 6.00 to 7.00 |
| COc1cccc(-c2cc(C(=O)Nc3ccc(-c4ccc(OC5CCN(C)CC5)cc4OCCN(C)CC[C@@H]4N=C(c5ccc(Cl)cc5)c5c(sc(C)c5C)-n5c(C)nnc54)cc3)ccc2OC)c1 [Compound 135] | < 6.00 | 100 to 1000 nM | 6.00 to 7.00 |
| COc1cccc(-c2cc(C(=O)Nc3ccc(-c4ccc(OC5CCN(C)CC5)cc4OCCN(C)C(=O)C[C@@H]4N=C(c5ccc(Cl)cc5)c5c(sc(C)c5C)-n5c(C)nnc54)cc3)ccc2OC)c1 [Compound 136] | < 6.00 | 100 to 1000 nM | 6.00 to 7.00 |
| COc1cccc(-c2cc(C(=O)Nc3ccc(-c4ccc(OC5CCN(C(=O)CNC(=O)C[C@@H]6N=C(c7ccc(Cl)cc7)c7c(sc(C)c7C)-n7c(C)nnc76)CC5)cc4O)cc3)ccc2OC)c1 [Compound 134] | < 6.00 | > 1000 nM | < 6.00 |
| CCc1cc(-c2nnc(C(N)=O)n2-c2ccc(CN3CCN(CC4CCN(C(=O)C[C@@H]5N=C(c6ccc(Cl)cc6)c6c(sc(C)c6C)-n6c(C)nnc65)CC4)CC3)cc2)c(O)cc1O [Compound 106, (S)-4-(4-((4-((1-(2-(4-(4-chlorophenyl)-2,3,9-trimethyl-6H-thieno[3,2-f][1,2,4]triazolo[4,3-a][1,4]diazepin-6-yl)acetyl)piperidin-4-yl)methyl)piperazin-1-yl)methyl)phenyl)-5-(5-ethyl-2,4-dihydroxyphenyl)-4H-1,2,4-triazole-3-carboxamide, trifluoroacetic acid] | 6.00 to 7.00 | < 100 nM | 6.00 to 7.00 |
| Cc1sc2c(c1C)C(c1ccc(Cl)cc1)=N[C@@H](CC(=O)NCc1ccc(CN3CCC(Cc4ccc(-n5c(C(=O)NCC(F)(F)F)nnc5-c5cc(C(C)C)c(O)cc5O)cc4)CC3)cc1)c1nnc(C)n1-2 [Compound 96, (S)-4-(4-((1-(4-((2-(4-(4-chlorophenyl)-2,3,9-trimethyl-6H-thieno[3,2-f][1,2,4]triazolo[4,3-a][1,4]diazepin-6-yl)acetamido)methyl)benzyl)piperidin-4-yl)methyl)phenyl)-5-(2,4-dihydroxy-5-isopropylphenyl)-N-(2,2,2-trifluoroethyl)-4H-1,2,4-triazole-3-carboxamide, trifluoroacetic acid] | 6.00 to 7.00 | < 100 nM | > 7.00 |
| Cc1sc2c(c1C)C(c1ccc(Cl)cc1)=N[C@@H](CC(=O)NCC1CCN(C(=O)C3CCN(Cc4ccc(-n5c(O)nnc5-c5cc(C(C)C)c(O)cc5O)cc4)CC3)CC1)c1nnc(C)n1-2 [Compound 53, (S)-2-(4-(4-chlorophenyl)-2,3,9-trimethyl-6H-thieno[3,2-f][1,2,4]triazolo[4,3-a][1,4]diazepin-6-yl)-N-((1-(1-(4-(3-(2,4-dihydroxy-5-isopropylphenyl)-5-hydroxy-4H-1,2,4-triazol-4-yl)benzyl)piperidine-4-carbonyl)piperidin-4-yl)methyl)acetamide, trifluoroacetic acid] | 6.00 to 7.00 | < 100 nM | 6.00 to 7.00 |
| Cc1sc2c(c1C)C(c1ccc(Cl)cc1)=N[C@@H](CC(=O)NCCOCCOCCN[C@@H](C)C(=O)N[C@H](C(=O)N1CCC[C@H]1C(=O)Nc1snnc1-c1ccccc1)C1CCCCC1)c1nnc(C)n1-2 [Compound 128, (S)-1-((2S,5S)-17-((S)-4-(4-chlorophenyl)-2,3,9-trimethyl-6H-thieno[3,2-f][1,2,4]triazolo[4,3-a][1,4]diazepin-6-yl)-2-cyclohexyl-5-methyl-4,16-dioxo-9,12-dioxa-3,6,15-triazaheptadecanoyl)-N-(4-phenyl-1,2,3-thiadiazol-5-yl)pyrrolidine-2-carboxamide] | < 6.00 | > 1000 nM | < 6.00 |
| Cc1sc2c(c1C)C(c1ccc(Cl)cc1)=N[C@@H](CC(=O)N1CCC(CN3CCN(Cc4ccc(-n5c(C(=O)NCCN6CCCCC6)nnc5-c5ccc(O)cc5O)cc4)CC3)CC1)c1nnc(C)n1-2 [Compound 110, (S)-4-(4-((4-((1-(2-(4-(4-chlorophenyl)-2,3,9-trimethyl-6H-thieno[3,2-f][1,2,4]triazolo[4,3-a][1,4]diazepin-6-yl)acetyl)piperidin-4-yl)methyl)piperazin-1-yl)methyl)phenyl)-5-(2,4-dihydroxyphenyl)-N-(2-(piperidin-1-yl)ethyl)-4H-1,2,4-triazole-3-carboxamide, trifluoroacetic acid] | 6.00 to 7.00 | 100 to 1000 nM | > 7.00 |
| Cc1sc2c(c1C)C(c1ccc(Cl)cc1)=N[C@@H](CC(=O)N1CCC(CN3CCC(Cc4ccc(-n5c(O)nnc5-c5cc(C(C)C)c(O)cc5O)cc4)CC3)CC1)c1nnc(C)n1-2 [Compound 94, (S)-2-(4-(4-chlorophenyl)-2,3,9-trimethyl-6H-thieno[3,2-f][1,2,4]triazolo[4,3-a][1,4]diazepin-6-yl)-1-(4-((4-(4-(3-(2,4-dihydroxy-5-isopropylphenyl)-5-hydroxy-4H-1,2,4-triazol-4-yl)benzyl)piperidin-1-yl)methyl)piperidin-1-yl)ethan-1-one, trifluoroacetic acid] | > 7.00 | < 100 nM | 6.00 to 7.00 |
| CCCc1cc(C(=O)N2Cc3ccc(CN4CCN(C(=O)C[C@@H]5N=C(c6ccc(Cl)cc6)c6c(sc(C)c6C)-n6c(C)nnc65)CC4)cc3C2)c(O)cc1O [Compound 145, (S)-2-(4-(4-chlorophenyl)-2,3,9-trimethyl-6H-thieno[3,2-f][1,2,4]triazolo[4,3-a][1,4]diazepin-6-yl)-1-(4-((2-(2,4-dihydroxy-5-propylbenzoyl)isoindolin-5-yl)methyl)piperazin-1-yl)ethan-1-one] | 6.00 to 7.00 | > 1000 nM | < 6.00 |
